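Results reflect a 48-hour exposure of cells in 96-well plates to compound at five concentrations. Here, GI50 denotes the concentration required for 50% inhibition of growth.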 Activity calls are given as the source filed them. No stated cut-off is given here; in the data, active = GI50 up to about 1.1 µM and inactive = higher.
Legend:
Assay in all cases: NCI tumour cell line growth inhibition, 48 h
SK-MEL-5 = tested on: SK-MEL-5
NCI-H460 = tested on: NCI-H460
SR = tested on: SR
HT-29 = tested on: HT-29
SK-MEL-28 = tested on: SK-MEL-28
T47D = tested on: T47D
U-251 = tested on: U-251
OVCAR-4 = tested on: OVCAR-4
NCI-H522 = tested on: NCI-H522
HL-60 = tested on: HL-60
Hs-578T = tested on: Hs-578T
OVCAR-5 = tested on: OVCAR-5
RPMI-8226 = tested on: RPMI-8226
HCC 2998 = tested on: HCC 2998
NCI/ADR-RES = tested on: NCI/ADR-RES
SNB-19 = tested on: SNB-19
UACC-62 = tested on: UACC-62
RXF 393 = tested on: RXF 393
BT-549 = tested on: BT-549

| SMILES | GI50 (SK-MEL-5) | GI50 (NCI-H460) | GI50 (SR) | GI50 (HT-29) | GI50 (SK-MEL-28) | GI50 (T47D) | GI50 (U-251) | GI50 (OVCAR-4) | GI50 (NCI-H522) | GI50 (HL-60) | GI50 (Hs-578T) | GI50 (OVCAR-5) | GI50 (RPMI-8226) | GI50 (HCC 2998) | GI50 (NCI/ADR-RES) | GI50 (SNB-19) | GI50 (UACC-62) | GI50 (RXF 393) | GI50 (BT-549) |
| --- | --- | --- | --- | --- | --- | --- | --- | --- | --- | --- | --- | --- | --- | --- | --- | --- | --- | --- | --- |
| O=C(O)c1nn[nH]c1S | > 100 µM (inactive) | > 100 µM (inactive) | > 100 µM (inactive) | > 100 µM (inactive) | > 100 µM (inactive) | > 100 µM (inactive) | > 100 µM (inactive) | > 100 µM (inactive) | > 100 µM (inactive) | > 100 µM (inactive) | > 100 µM (inactive) | > 100 µM (inactive) | > 100 µM (inactive) | > 100 µM (inactive) | > 100 µM (inactive) | > 100 µM (inactive) | > 100 µM (inactive) | > 100 µM (inactive) |  |
| Cc1[nH]c(=O)[nH]c(=S)c1C(=O)NC(C)(CO)CO | > 100 µM (inactive) | > 100 µM (inactive) |  | > 100 µM (inactive) | > 100 µM (inactive) | > 100 µM (inactive) | > 100 µM (inactive) | > 100 µM (inactive) | > 100 µM (inactive) | > 100 µM (inactive) | > 100 µM (inactive) | > 100 µM (inactive) |  | > 100 µM (inactive) | > 100 µM (inactive) | > 100 µM (inactive) | > 100 µM (inactive) | > 100 µM (inactive) |  |
| Nc1nc(Cl)cc(OCC2(CO)CC=CC2)n1 | > 100 µM (inactive) | > 100 µM (inactive) | > 100 µM (inactive) | > 100 µM (inactive) | > 100 µM (inactive) |  | 46.2 µM (inactive) | > 100 µM (inactive) | > 100 µM (inactive) | > 100 µM (inactive) | > 100 µM (inactive) | > 100 µM (inactive) | > 100 µM (inactive) | > 100 µM (inactive) | > 100 µM (inactive) | > 100 µM (inactive) |  | > 100 µM (inactive) |  |
| CCc1cccc(C(C)C)c1C1C(=O)C(=O)N(c2nc3ccccc3s2)C(=O)C1=O | > 100 µM (inactive) | > 100 µM (inactive) | > 100 µM (inactive) | > 100 µM (inactive) | > 100 µM (inactive) |  | > 100 µM (inactive) | > 100 µM (inactive) |  | > 100 µM (inactive) |  | > 100 µM (inactive) | > 100 µM (inactive) | > 100 µM (inactive) |  | 71.9 µM (inactive) | > 100 µM (inactive) | > 100 µM (inactive) |  |
| CNC(=S)/N=c1/sc(NC)nc2sc3c(c12)CCCC3 | > 100 µM (inactive) | > 100 µM (inactive) | > 100 µM (inactive) | > 100 µM (inactive) | > 100 µM (inactive) |  | 35.4 µM (inactive) | > 100 µM (inactive) | 36.4 µM (inactive) | > 100 µM (inactive) | 29 µM (inactive) | > 100 µM (inactive) | > 100 µM (inactive) | > 100 µM (inactive) |  | 35.9 µM (inactive) | > 100 µM (inactive) | 22.5 µM (inactive) | 47.1 µM (inactive) |
| COc1cc(C2c3cc4c(cc3[C@@H](Nc3ccc(F)cc3)C3CO[C@@H](O)[C@H]23)OCO4)cc(OC)c1O (some centres undefined) | 6.18 µM (inactive) | 0.169 µM (active) |  |  | 7.85 µM (inactive) | 3.72 µM (inactive) | 1.69 µM (inactive) | 12.2 µM (inactive) | 3.16 µM (inactive) | 0.598 µM (active) | 0.697 µM (active) | 1.46 µM (inactive) | 2.26 µM (inactive) | 11 µM (inactive) | 7.36 µM (inactive) | 3.64 µM (inactive) |  |  |  |
| O=C1C[C@H](c2ccc(O)c(O)c2)Oc2cc(O)cc(O)c21 | > 100 µM (inactive) | 72.4 µM (inactive) | 27 µM (inactive) | > 100 µM (inactive) | 90.6 µM (inactive) |  | 82.4 µM (inactive) | > 100 µM (inactive) | 11.6 µM (inactive) | 30.6 µM (inactive) |  | > 100 µM (inactive) | > 100 µM (inactive) | > 100 µM (inactive) |  | > 100 µM (inactive) | 61.7 µM (inactive) | > 100 µM (inactive) |  |
| Cc1ccc(C(=O)N/N=C(\N=N\c2cccc([N+](=O)[O-])c2)c2ccc(N(C)C)cc2)cc1 | 25.7 µM (inactive) | 57.7 µM (inactive) |  | 46.5 µM (inactive) | > 100 µM (inactive) |  | > 100 µM (inactive) | 24.4 µM (inactive) | 37.2 µM (inactive) | 27.9 µM (inactive) | > 100 µM (inactive) | > 100 µM (inactive) | 61.9 µM (inactive) | > 100 µM (inactive) | 41.8 µM (inactive) | 54.5 µM (inactive) |  |  | 47.8 µM (inactive) |
| COc1cc2c(cc1OC)C13CCN4CC5=CCOC(CC(=O)O)C(C5CC41)C3N2 (centres undefined) | > 100 µM (inactive) | > 100 µM (inactive) | > 100 µM (inactive) | > 100 µM (inactive) | > 100 µM (inactive) |  | > 100 µM (inactive) | > 100 µM (inactive) | > 100 µM (inactive) | > 100 µM (inactive) | > 100 µM (inactive) | > 100 µM (inactive) | > 100 µM (inactive) |  | > 100 µM (inactive) | > 100 µM (inactive) | > 100 µM (inactive) |  | > 100 µM (inactive) |
| c1ccc(P2c3ccccc3Nc3ccccc32)cc1 | 30.8 µM (inactive) | 62.1 µM (inactive) | 23.2 µM (inactive) | 49 µM (inactive) | > 100 µM (inactive) | 55.2 µM (inactive) | 56.1 µM (inactive) | 38.8 µM (inactive) | 62.5 µM (inactive) | 29.1 µM (inactive) |  | > 100 µM (inactive) |  | > 100 µM (inactive) | > 100 µM (inactive) | 59 µM (inactive) | 37.8 µM (inactive) | 29.5 µM (inactive) |  |
| C/C(CC1SCCCS1)=C(/C)CC1SCCCS1 | > 100 µM (inactive) | > 100 µM (inactive) | > 100 µM (inactive) | > 100 µM (inactive) | > 100 µM (inactive) | > 100 µM (inactive) |  | > 100 µM (inactive) |  | > 100 µM (inactive) | > 100 µM (inactive) | > 100 µM (inactive) | > 100 µM (inactive) | > 100 µM (inactive) | > 100 µM (inactive) | > 100 µM (inactive) | > 100 µM (inactive) | > 100 µM (inactive) |  |
| CC(=O)OCc1cccc(O)c1C(=O)CCC=C(C)C | > 100 µM (inactive) | > 100 µM (inactive) | > 100 µM (inactive) | > 100 µM (inactive) | > 100 µM (inactive) | > 100 µM (inactive) | > 100 µM (inactive) | > 100 µM (inactive) | 27.1 µM (inactive) | 34.7 µM (inactive) | > 100 µM (inactive) | 29.3 µM (inactive) | > 100 µM (inactive) | > 100 µM (inactive) | > 100 µM (inactive) | > 100 µM (inactive) | > 100 µM (inactive) | > 100 µM (inactive) |  |
| CC(=O)OC1COC(N2C(=O)C(=O)c3ccccc32)C(OC(C)=O)C1OC(C)=O (centres undefined) | > 100 µM (inactive) | > 100 µM (inactive) | > 100 µM (inactive) | > 100 µM (inactive) | > 100 µM (inactive) |  | > 100 µM (inactive) | > 100 µM (inactive) | > 100 µM (inactive) |  |  |  | > 100 µM (inactive) | > 100 µM (inactive) |  | > 100 µM (inactive) | 68.9 µM (inactive) | > 100 µM (inactive) |  |

Source: ChEMBL document CHEMBL1201862, “PubChem BioAssay data set” (2004)
